Data: patent publication US6066662A, “Hydroxylamine derivatives and their use as metalloproteinase inhibiting agents” (Hoffmann-La Roche Inc., priority 1994, dated 2000)

biological target: T1, collagenase (Homo sapiens, UniProt P03956); assay: in vitro collagenase inhibiting activity (Test A); type: biochemical; settings: collagenase from culture of human synovial fibroblasts, trypsin-activated; substrate 14C-acetylated collagen type I from rat tail tendons; microtitre plate assay
T1 construct: endogenous in cells; host or cells: culture of human synovial fibroblasts (conditioned medium)
T1 sequence (P03956 100-469): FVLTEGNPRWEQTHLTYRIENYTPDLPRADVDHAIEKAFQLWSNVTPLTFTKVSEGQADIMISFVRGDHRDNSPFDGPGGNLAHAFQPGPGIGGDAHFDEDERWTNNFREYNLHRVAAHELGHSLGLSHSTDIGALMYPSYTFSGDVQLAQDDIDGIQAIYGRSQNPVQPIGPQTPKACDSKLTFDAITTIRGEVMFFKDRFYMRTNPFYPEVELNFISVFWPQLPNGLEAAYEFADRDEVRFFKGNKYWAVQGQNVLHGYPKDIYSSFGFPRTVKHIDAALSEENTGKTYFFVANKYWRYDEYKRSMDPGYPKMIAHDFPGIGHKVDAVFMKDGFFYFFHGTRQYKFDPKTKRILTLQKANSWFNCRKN
Method: USA (1976), 73 945, following activation of the pro-collagenase in the conditioned medium by treatment with trypsin. Collagenase activity was measured using ^14 C-acetylated collagen type I from rat tail tendons as the substrate and employing the microtitre plate assay method of Johnson-Wint, B, Anal. Biochem. (1980), 104, 175. The IC50 is that concentration of a test compound in the enzyme digestion which reduces substrate cleavage and solubilization to 50% of that achieved by the enzyme alone.

SMILES	IC50
CNC(=O)[C@@H](NC(=O)C(CC(=O)NO)CC1CCCC1)C(C)(C)C (single isomer, unassigned) [Example 3, N2-[3-cyclopentyl-2(R or S)-[(hydroxycarbamoyl)methyl]propionyl]-N1-3-dimethyl-L-valinamide]	5 nM
CNC(=O)[C@@H](NC(=O)C(CC(=O)NO)CC1CC1)C(C)(C)C (single isomer, unassigned) [Example 2, N2-[3-cyclopropyl-2(R or S)-[(hydroxycarbamoyl)-methyl]propionyl]-N1,3-dimethyl-L-valinamide]	7 nM

Stronger by IC50, values ahead:

IC50	SMILES
1 nM	CNC(=O)[C@@H](NC(=O)[C@H](CC1CC1)C(CN1C(=O)N(C)C(C)(C)C1=O)C(=O)NO)C(C)(C)C (single isomer, unassigned) [Example 4, N2-[3-cyclopropyl-2(R)-[1(R or S)-(hydroxycarbamoyl)-2-(3,4,4-trimethyl-2,5-dioxo-1-imidazolidinyl)ethyl]propionyl]-N1,3-dimethyl-L-valinamide]
1 nM	CNC(=O)[C@@H](NC(=O)[C@H](CC1CCC1)C(CN1C(=O)N(C)C(C)(C)C1=O)C(=O)NO)C(C)(C)C (single isomer, unassigned) [Example 5, N2-[3-cyclobutyl-2(R)-[1(R or S)-(hydroxycarbamoyl)-2-(3,4,4-trimethyl-2,5-dioxo-1-imidazolidinyl)ethyl]propionyl]-N1,3-dimethyl-L-valinamide]
2 nM	CNC(=O)[C@@H](NC(=O)C(CC(=O)NO)CC1CCC1)C(C)(C)C (single isomer, unassigned) [Example 1, N2-[3-cyclobutyl-2(R or S)-[(hydroxycarbamoyl)-methyl]propionyl]-N1,3-dimethyl-L-valinamide]
